Results: ChEMBL document CHEMBL1141886, “QSAR study on the antibacterial activity of some sulfa drugs: building blockers of Mannich bases” (2005)

How the values were obtained:
Format in all cases: functional
Escherichia coli [1] = test: Antibacterial activity of compound against Escherichia coli at 80 ug/mL expressed as zone of inhibition
Escherichia coli [2] = test: Antibacterial activity of compound against Escherichia coli at 10 ug/mL expressed as zone of inhibition
Escherichia coli [3] = test: Antibacterial activity of compound against Escherichia coli at 20 ug/mL expressed as zone of inhibition
Escherichia coli [4] = test: Antibacterial activity of compound against Escherichia coli at 40 ug/mL expressed as zone of inhibition
Bacillus subtilis [5] = test: Antibacterial activity of compound against Bacillus subtilis at 10 ug/mL expressed as zone of inhibition
Bacillus subtilis [6] = test: Antibacterial activity of compound against Bacillus subtilis at 80 ug/mL expressed as zone of inhibition
Bacillus subtilis [7] = test: Antibacterial activity of compound against Bacillus subtilis at 20 ug/mL expressed as zone of inhibition
Bacillus subtilis [8] = test: Antibacterial activity of compound against Bacillus subtilis at 40 ug/mL expressed as zone of inhibition
Klebsiella pneumoniae [9] = test: Antibacterial activity of compound against Klebsiella pneumoniae at 20 ug/mL expressed as zone of inhibition
Klebsiella pneumoniae [10] = test: Antibacterial activity of compound against Klebsiella pneumoniae at 80 ug/mL expressed as zone of inhibition
Klebsiella pneumoniae [11] = test: Antibacterial activity of compound against Klebsiella pneumoniae at 40 ug/mL expressed as zone of inhibition
Klebsiella pneumoniae [12] = test: Antibacterial activity of compound against Klebsiella pneumoniae at 10 ug/mL expressed as zone of inhibition

Q: What does the source list for `Nc1ccc(S(N)(=O)=O)cc1` [SULFANILAMIDE]?
A: Zone of inhibition (Escherichia coli [1]): 25.55 mm; Zone of inhibition (Escherichia coli [2]): 20.43 mm; Zone of inhibition (Escherichia coli [3]): 22.3 mm; Zone of inhibition (Escherichia coli [4]): 22.86 mm

Q: What does the source list for `N=C(N)NS(=O)(=O)c1ccc(N)cc1` [SULFAGUANIDINE]?
A: Zone of inhibition (Bacillus subtilis [5]): 11.23 mm; Zone of inhibition (Bacillus subtilis [6]): 21.76 mm; Zone of inhibition (Bacillus subtilis [7]): 10.9 mm; Zone of inhibition (Bacillus subtilis [8]): 17.9 mm

Q: Which Zone of inhibition (Bacillus subtilis [5]) does the source give for `Cc1nnc(NS(=O)(=O)c2ccc(N)cc2)s1` [SULFAMETHIZOLE] here?
A: The Zone of inhibition was 18.06 mm.

Q: And the Zone of inhibition (Klebsiella pneumoniae [9])?
A: The Zone of inhibition was 29.86 mm.

Q: And the Zone of inhibition (Klebsiella pneumoniae [10])?
A: The Zone of inhibition was 27.76 mm.

Q: And the Zone of inhibition (Klebsiella pneumoniae [11])?
A: Its Zone of inhibition is 29.6 mm.

Q: And the Zone of inhibition (Bacillus subtilis [6])?
A: The Zone of inhibition was 20.5 mm.

Q: And the Zone of inhibition (Escherichia coli [1])?
A: The Zone of inhibition was 25.5 mm.

Q: And the Zone of inhibition (Bacillus subtilis [7])?
A: The Zone of inhibition was 19.13 mm.

Q: And the Zone of inhibition (Bacillus subtilis [8])?
A: The Zone of inhibition was 19.46 mm.

Q: And the Zone of inhibition (Escherichia coli [2])?
A: Its Zone of inhibition is 16.2 mm.

Q: What about the Zone of inhibition (Klebsiella pneumoniae [12]) of the same compound?
A: Its Zone of inhibition is 30.3 mm.

Q: And the Zone of inhibition (Escherichia coli [3])?
A: Its Zone of inhibition is 17.43 mm.

Q: And the Zone of inhibition (Escherichia coli [4])?
A: Its Zone of inhibition is 22.2 mm.

Q: Which results are given for `Cc1cc(C)nc(NS(=O)(=O)c2ccc(N)cc2)n1` [SULFAMETHAZINE]?
A: Zone of inhibition (Bacillus subtilis [5]): 15.4 mm; Zone of inhibition (Bacillus subtilis [6]): 22.08 mm; Zone of inhibition (Escherichia coli [1]): 18.56 mm; Zone of inhibition (Bacillus subtilis [7]): 19.96 mm; Zone of inhibition (Bacillus subtilis [8]): 21.76 mm; Zone of inhibition (Escherichia coli [2]): 15.1 mm; Zone of inhibition (Escherichia coli [3]): 16.9 mm; Zone of inhibition (Escherichia coli [4]): 18.8 mm

Q: `Nc1ccc(S(=O)(=O)Nc2ncccn2)cc1` [SULFADIAZINE] was tested. Which Zone of inhibition (Bacillus subtilis [5]) did it give?
A: Its Zone of inhibition is 20.86 mm.

Q: What about the Zone of inhibition (Klebsiella pneumoniae [9]) of the same compound?
A: Its Zone of inhibition is 29.23 mm.

Q: And the Zone of inhibition (Klebsiella pneumoniae [10])?
A: Its Zone of inhibition is 25.63 mm.

Q: And the Zone of inhibition (Klebsiella pneumoniae [11])?
A: The Zone of inhibition was 29.53 mm.

Q: And the Zone of inhibition (Bacillus subtilis [6])?
A: The Zone of inhibition was 25.93 mm.

Q: And the Zone of inhibition (Escherichia coli [1])?
A: The Zone of inhibition was 24.5 mm.

Q: And the Zone of inhibition (Bacillus subtilis [7])?
A: The Zone of inhibition was 27.23 mm.

Q: And the Zone of inhibition (Bacillus subtilis [8])?
A: Its Zone of inhibition is 26.36 mm.

Q: And the Zone of inhibition (Escherichia coli [2])?
A: Its Zone of inhibition is 9.7 mm.

Q: And the Zone of inhibition (Klebsiella pneumoniae [12])?
A: Its Zone of inhibition is 27.03 mm.

Q: What about the Zone of inhibition (Escherichia coli [3]) of the same compound?
A: Its Zone of inhibition is 17.2 mm.

Q: What about the Zone of inhibition (Escherichia coli [4]) of the same compound?
A: Its Zone of inhibition is 21.2 mm.

Q: What does the source list for `Cc1cc(NS(=O)(=O)c2ccc(N)cc2)no1` [SULFAMETHOXAZOLE]?
A: Zone of inhibition (Bacillus subtilis [5]): 22.8 mm; Zone of inhibition (Klebsiella pneumoniae [9]): 14.92 mm; Zone of inhibition (Klebsiella pneumoniae [10]): 26.46 mm; Zone of inhibition (Klebsiella pneumoniae [11]): 22.43 mm; Zone of inhibition (Bacillus subtilis [6]): 27.9 mm; Zone of inhibition (Escherichia coli [1]): 24.03 mm; Zone of inhibition (Bacillus subtilis [7]): 25.46 mm; Zone of inhibition (Bacillus subtilis [8]): 27.43 mm; Zone of inhibition (Escherichia coli [2]): 19.63 mm; Zone of inhibition (Klebsiella pneumoniae [12]): 11.63 mm; Zone of inhibition (Escherichia coli [3]): 22.93 mm; Zone of inhibition (Escherichia coli [4]): 23.23 mm
